US10705094B2, “TNF receptor signaling modulator assay” (UCB Biopharma SRL, priority 2015, dated 2020)

Assays:
TNFα [1] = molecular target: T1, TNFα (Homo sapiens, UniProt P01375); assay: Surface plasmon resonance kinetics of compound binding to immobilised TNFα (Biacore T100/T200)
Method: Surface plasmon resonance was used to measure the association rate, the dissociation rate and the affinity of the compounds of formulae (1) and (2) for TNFα (FIGS. 13A and B). For the purpose of this study a Biacore T100/T200 was used.
TNFα was immobilised at pH5 to a level of 5-8 KRU onto a CMS sensor in HBS-P buffer (10 mM HEPES pH 7.4, 0.15 M NaCl, 0.005% Surfactant P20, BIAcore, GE Healthcare). The TNFα was then equilibrated in HBS-P with 5% DMSO for at least 5 hours. The samples were diluted from 10 mM stocks into DMSO matched buffer and left to solubilise for at least 5 hours. The flow rate was 30 μL/min.
This assay was performed by adding 4 or 5 concentrations of compound starting from a highest concentration of 25 μM for compound of formula (1) and 1 μM for compound of formula (2) and then serially diluting this sample. Background subtraction binding curves were analysed using the BIAevaluation software following standard procedures. Binding, affinity and kinetic parameters were determined using Biacore software. The kinetic data were fitted using the levenberg marquardt algorithm.

TNFα [2] = molecular target: T1, TNFα; assay: Fluorescence polarization assay, competition with the compound of formula (4) for TNFα; conditions: TNFα 50 nM, compound of formula (4) 10 nM, 5% DMSO; read-out: IC50 (inhibition of binding of the compound of formula (4) to TNFα)
Method: The final concentrations of TNFα and the compound of formula (4) were 50 nM and 10 nM respectively in a total assay volume of 25 μl. Plates were read on an Analyst HT reader. An IC50 was calculated using xlfit (4 parameter logistic model) in Activity Base.
C87 was preincubated with TNFα for 1 hour prior to assay against the fluorescent compound (probe). Competition with the fluorescent compound either directly (binding at the same site) or indirectly (disrupting TNF) is detected by a reduction in FP.

TNFα [3] = molecular target: T1, TNFα; assay: L929 murine fibrosarcoma cell-killing (neutralisation) assay; assay type: cell-based, mouse; set-up: host or cells: added to L929 murine fibrosarcoma cells (ECACC, 85011425); conditions: L929 cells; read-out: IC50 (inhibition of cell killing activity of human TNFα)
Method: The L929 neutralisation assays were carried out using the protocol disclosed in Baarsch M J J et al (Immunol Methods 1991; 140: 15-22) and Galloway C J et al J (Immunol Methods 1991; 140: 37-43).
Briefly, L929 cells (ECACC, 85011425) were cultured in culture medium consisting of RPMI 1640 (Gibco) containing 10% FCS (PAA), 2 mM glutamine (Gibco), 50 U/ml penicillin (Gibco) and 50 μg/ml streptomycin (Gibco). When they were subcultured, the cells were washed three times with 10 mL Dulbecco's phosphate-buffered saline without calcium and magnesium (Gibco) and 3 ml of trypsin-EDTA (Gibco) was then added for 2 minutes to remove the cells from the flask. Culture medium was added to neutralise the trypsin and the cells pipetted up and down to remove any clumps.
The L929 cells were split 1/2 or 1/3 the day before use and cultured for a further 24 hours. The flasks were then trypsinised as above and 2×10^4 cells in 100 μl were added per well of a 96 well flat-bottomed plate (Becton Dickinson). The plates were cultured for 24 hours before the assay was set up.
Serial dilutions were made from DMSO stocks of the compounds.
The assay medium was the same as culture medium but also contained 1 μg/ml actinomycin D (Sigma). The medium was flicked off the plates and the assay samples plus TNFα, standards and controls were added in 100 μl volumes in duplicate. Plates were incubated for a further 16 hours and then 10 μl per well of a 5 mg/ml methylthiazoletetrazolium (MTT; Sigma) solution in culture medium was added for a further 4 hours. The reaction was stopped by the addition of 100 μl of solubilisation buffer containing 20% sodium dodecyl sulphate (SDS, BDH) dissolved in 50% dimethyl formamide (DMF; BDH) and 50% deionised water.
After overnight incubation at 37° C. to allow the dye to dissolve, the plates were read on a Multiskan EX plate reader (Labsystem) at 570 nm with subtraction at 630 nm. Data were analysed using the Genesis software package.

[4] = molecular target: T2, TNFα binding to the TNF receptor (TNFR-ECD) (Homo sapiens, UniProt P01375); assay: Meso Scale Discovery (MSD) assay of TNFα binding to plate-coated TNFR-ECD; conditions: single point assay, 100 μM compound, 5% final v/v DMSO
T2 construct: purchased R&D Systems
Method: 384 well uncoated plates (standard binding) Meso Scale Discovery plates (MSD) were coated overnight with the extracellular domain of TNFR (TNFR-ECD) (10 μl, 1 ug/mL in PBS). To ensure even distribution plates were centrifuged at 1000 rpm for 2 minutes. The plates were then sealed and stored at +4° C. overnight.
The wells of the plates were then washed three times in 50 μl phosphate buffered saline pH 6.5 (PB) with 0.05% Tween 20 (wash buffer), and then blocked with 50 μl 2% BSA. The plates were then incubated at room temperature on a shaker (600 rpm) for 2 hours. After this incubation plates were washed (3×50 μl wash buffer per well).
During the blocking incubation, compounds of formulae (1) and (2) were pre-incubated with TNF (R&D Systems) prior to addition to the pre-blocked and washed MSD plates. For a single point assay as shown in FIG. 3A the compounds were assayed at a final concentration of 100 μM (5% final v/v DMSO).
Pre-diluted compounds of formulae (1) and (2) were added at a ratio of 1:1 to 4 ng/mL TNF (final concentration 2 ng/ml), and then incubated at room temperature on a shaker 600 rpm for 1 hour.
10 μl of pre-incubated mixtures of compound of formulae (1) or (2) with TNFα were added to the prepared MSD plate and incubated at room temperature on a shaker for 1 hour.
The plates were then washed with wash buffer (3×50 μl per well). Sulfo-tagged anti-TNF polyclonal antibody was then added to each well and the plates incubated for a further 1.5 hours at room temperature on a shaker.
The plates were then washed (3×50 μl wash buffer per well), followed by the addition of 50 μl MSD Read buffer T plus surfactant (diluted 1 in 2 in H2O) and read on a SECTOR Imager 6000.
For single point assays percentage inhibition was calculated using a control sample without compound.
For EC50s determination results were calculated by standard means using a 4 parameter logistic model (sigmoidal dose response model).

T1 sequence (P01375 77-233 limits assumed): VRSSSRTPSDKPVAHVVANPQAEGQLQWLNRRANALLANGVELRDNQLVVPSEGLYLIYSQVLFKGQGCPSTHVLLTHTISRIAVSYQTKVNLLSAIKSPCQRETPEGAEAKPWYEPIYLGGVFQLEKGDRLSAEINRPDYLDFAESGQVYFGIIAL
T2 sequence (P01375 77-233 limits assumed): as above

Row | Kd (TNFα [1]; calculated from koff/kon, read-out: dissociation constant (KD)) [nM] | kon (TNFα [1]; immobilised TNFα, HBS-P with 5% DMSO) [M⁻¹ s⁻¹] | koff (TNFα [1]; immobilised TNFα, HBS-P with 5% DMSO, read-out: dissociation rate constant (koff)) [s⁻¹] | IC50 (TNFα [2]) [nM] | % inhibition of TNFα binding to the TNF receptor [4] | SMILES | IC50 (TNFα [3]) [nM]
1 | 7 | 5470 | 4.07e-05 | 20 |  | O=C1CCCN1c1cccc(OCc2nc3ccc(-c4ccc(=O)[nH]c4)cc3n2Cc2ccccc2OC(F)F)c1 [Compound (3), 5-(1-[2-(Difluoromethoxy)benzyl]-2-{[3-(2-oxo-pyrrolidin-1-yl)phenoxy]methyl}-1H-benzimidazol-6-yl)-pyridin-2(1H)-one] | 21
2 |  |  |  |  | +80% | Cc1cc2occ(CN(C)CCN(C)Cc3cn(-c4cccc(C(F)(F)F)c4)c4ccccc34)c(=O)c2cc1C [SPD-304, reference compound] | 
